According to patent US20070207946A1, “Dipeptidyl peptidase IV inhibitors and their uses for lowering blood pressure levels” (priority 2001, published 2007):
Read-outs that look alike come from different tables or passages of the source. Square brackets hold non-standard residues; d marks the D form. Peptide text beside a SMILES is read from it. * marks the point of attachment. pY = N[C@@H](Cc1ccc(OP(=O)(O)O)cc1)C(=O)O; aIle = CC[C@@H](C)[C@H](N)C(=O)O; Aoc(2) = CCCCCC[C@H](N)C(=O)O; Tle = CC(C)(C)[C@H](N)C(=O)O; Orn = NCCC[C@H](N)C(=O)O; Aze = O=C(O)[C@@H]1CCN1; Nva = CCC[C@H](N)C(=O)O; Abu = CC[C@H](N)C(=O)O; Bn = c1ccc(C*)cc1

How the values were obtained:
[1] = biological target: T1, dipeptidyl peptidase IV from porcine kidney (Sus scrofa, UniProt P22411); test: Ki determination of DPIV inhibition; assay type: biochemical; settings: substrate glycylprolyl-4-nitroaniline, HEPES pH7.6, 30° C.
T1 construct: dipeptidyl peptidase IV from porcine kidney; from tissue; host or cells: porcine kidney

purified porcine DPIV = purified porcine DPIV (Sus scrofa, UniProt P22411); test: Determination of IC50 values (DPIV, Gly-Pro-pNA); assay type: biochemical; settings: Gly-Pro-pNA 0.4 mM, HEPES pH7.6, 30° C.
Experimental: 100 μl inhibitor stock solution were mixed with 100 μl buffer (HEPES pH7.6) and 50 μl substrate (Gly-Pro-pNA, final concentration 0.4 mM) and preincubated at 30° C. Reaction was started by addition of 20 μl purified porcine DPIV. Formation of the product pNA was measured at 405 nm over 10 min using the HTS 7000Plus plate reader (Perkin Elmer) and slopes were calculated. The final inhibitor concentrations ranged between 1 mM and 30 nM. For calculation of IC50 GraFit 4.0.13 (Erithacus Software) was used.

plasma DPIV activity = biological target: T2, plasma DPIV activity (Rattus norvegicus, UniProt P14740); test: DPIV inhibiting activity after intravasal and oral administration to Wistar rats; assay type: in vivo; settings: for in vivo DPIV-inhibition at tmax, i.v. / in vivo DPIV-inhibition at tmax, p.o.: dose 100 mg/kg; for inhibition at 100 mg/kg: rat
T2 construct: from tissue; host or cells: plasma of Wistar rats
Experimental: Male Wistar rats (Shoe: Wist(Sho)) with a body weight ranging between 250 and 350 g were purchased from Tierzucht Schönwalde (Schönwalde, Germany).
Animals were single-caged under conventional conditions with controlled temperature (22±2° C.) on a 12/12 hours light/dark cycle (light on at 06:00 AM). Standard pelleted chow (ssniff® Soest, Germany) and tap water acidified with HCl were allowed ad libitum.
After ≧one week of adaptation at the housing conditions, catheters were implanted into the carotid artery of Wistar rats under general anaesthesia (i.p. injection of 0.25 ml/kg b.w. Rompun® [2%], BayerVital, Germany and 0.5 ml/kg b.w. Ketamin 10, Atarost GmbH & Co., Twistringen, Germany). The animals were allowed to recover for one week. The catheters were flushed with heparin-saline (100 IU/ml) three times per week. In case of catheter dysfunction, a second catheter was inserted into the contra-lateral carotid artery of the respective rat. After one week of recovery from surgery, this animal was reintegrated into the study. In case of dysfunction of the second catheter, the animal was withdrawn from the study. A new animal was recruited and the experiments were continued in the planned sequence, beginning at least 7 days after catheter implantation.
After overnight fasting, 100 μl samples of heparinised arterial blood were collected at −30, −5, and 0 min. […] In the case of oral administration, an additional volume of 1 ml saline was injected into the arterial catheter. In the case of infra-arterial administration, the catheter was immediately flushed with 30 μl saline and an additional 1 ml of saline was given orally via the feeding tube.
All blood samples were collected into ice cooled Eppendorf tubes (Eppendorf-Netheler-Hinz, Hamburg, Germany) filled with 10 μl 1M sodium citrate buffer (pH 3.0) for plasma DPIV activity measurement. Eppendorf tubes were centrifuged immediately (12000 rpm for 2 min, Hettich Zentrifuge EBA 12, Tuttlingen; Germany): The plasma fractions were stored on ice until analysis or were frozen at −20° C. until analysis. All plasma samples were labelled with the following data:
The assay mixture for determination of plasma DPIV activity consisted of 80 μl reagent and 20 μl plasma sample. […] The DPIV activity was expressed in mU/ml.
All parameters were analysed in a descriptive manner including mean and SD.

PepT1 [2] = biological target: T3, PepT1 (Oryctolagus cuniculus, UniProt P36836); test: Inhibition of binding of 3H-D-Phe-Ala to PepT1-expressing P. pastoris cells; settings: read-out: EC50: concentration inhibiting the binding of 3H-D-Phe-Ala to PepT1-expressing P. pastoris cells by 50%
T3 sequence (P36836 1-707): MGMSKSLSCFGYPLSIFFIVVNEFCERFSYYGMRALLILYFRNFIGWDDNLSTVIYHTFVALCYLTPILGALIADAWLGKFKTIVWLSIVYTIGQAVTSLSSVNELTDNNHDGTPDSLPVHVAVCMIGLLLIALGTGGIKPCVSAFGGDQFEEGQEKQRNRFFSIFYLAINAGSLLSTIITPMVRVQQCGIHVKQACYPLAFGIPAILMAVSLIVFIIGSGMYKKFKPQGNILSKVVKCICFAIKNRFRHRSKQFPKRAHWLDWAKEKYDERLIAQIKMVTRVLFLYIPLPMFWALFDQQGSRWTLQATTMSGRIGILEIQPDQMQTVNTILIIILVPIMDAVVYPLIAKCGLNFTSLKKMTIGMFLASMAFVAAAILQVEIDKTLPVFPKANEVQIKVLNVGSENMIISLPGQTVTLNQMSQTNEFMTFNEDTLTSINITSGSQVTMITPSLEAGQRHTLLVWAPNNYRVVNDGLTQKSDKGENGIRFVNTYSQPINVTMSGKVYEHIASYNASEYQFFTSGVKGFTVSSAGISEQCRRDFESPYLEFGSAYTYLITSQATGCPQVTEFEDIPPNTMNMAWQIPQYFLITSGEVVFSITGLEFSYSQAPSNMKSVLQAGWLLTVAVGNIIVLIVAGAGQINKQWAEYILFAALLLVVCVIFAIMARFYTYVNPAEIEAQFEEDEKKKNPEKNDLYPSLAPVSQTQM
Excerpt: (§1) Side chain-modified glutamyl thiazolidines having a structure H-Glu(X)-Thia were synthesised, with polyethylene glycol or glycine oligomers of various chain lengths being used as X (see Method A of example for description of synthesis). The binding characteristics of those derivatives and their transportability by the peptide transporter PepT1 were investigated.

PepT1 [3] = biological target: T3, PepT1; test: Transport characteristics at PepT1-expressing oocytes of X. leavis, two-electrode voltage clamp; assay type: cell-based
Excerpt: as §1

F344 rats = test: Chronic intragastric infusion via osmotic minipumps over two weeks - blood pressure; assay type: in vivo, rat
Experimental: Reduced expression of the ectopeptidase DPIV and lack of DPIV-like activity in mutant F344 rats lacking DPIV enzymic activity and expression results in a lowered blood pressure. Mutant F344 substrains lacking DPIV enzymic activity and wild-type-like F344 were tested.

[4] = intra-vasal (intra-arterial) route

purified porcine DPIV, sequence (P22411 whole entry): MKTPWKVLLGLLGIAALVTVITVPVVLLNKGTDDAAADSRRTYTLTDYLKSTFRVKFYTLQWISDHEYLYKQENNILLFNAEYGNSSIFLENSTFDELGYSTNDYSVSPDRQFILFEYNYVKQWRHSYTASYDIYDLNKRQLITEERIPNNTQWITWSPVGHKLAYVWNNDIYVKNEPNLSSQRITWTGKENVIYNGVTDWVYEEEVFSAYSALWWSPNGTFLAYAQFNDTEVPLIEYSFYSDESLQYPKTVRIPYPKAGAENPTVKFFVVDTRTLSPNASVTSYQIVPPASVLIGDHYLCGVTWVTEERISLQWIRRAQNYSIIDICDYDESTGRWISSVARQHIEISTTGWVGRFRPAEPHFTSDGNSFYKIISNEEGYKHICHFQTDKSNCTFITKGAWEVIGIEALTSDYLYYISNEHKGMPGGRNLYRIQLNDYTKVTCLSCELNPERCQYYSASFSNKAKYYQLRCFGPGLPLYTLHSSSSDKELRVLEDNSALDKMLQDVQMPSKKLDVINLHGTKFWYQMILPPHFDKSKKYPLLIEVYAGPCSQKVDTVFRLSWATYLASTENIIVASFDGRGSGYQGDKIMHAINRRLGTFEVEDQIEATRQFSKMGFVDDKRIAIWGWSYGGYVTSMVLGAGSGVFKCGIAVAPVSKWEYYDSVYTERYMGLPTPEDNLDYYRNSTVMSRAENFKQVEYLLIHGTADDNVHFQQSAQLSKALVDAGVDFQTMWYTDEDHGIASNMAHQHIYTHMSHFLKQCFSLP
T1 sequence (P22411 whole entry): as above
T2 sequence (P14740 38-767 limits assumed): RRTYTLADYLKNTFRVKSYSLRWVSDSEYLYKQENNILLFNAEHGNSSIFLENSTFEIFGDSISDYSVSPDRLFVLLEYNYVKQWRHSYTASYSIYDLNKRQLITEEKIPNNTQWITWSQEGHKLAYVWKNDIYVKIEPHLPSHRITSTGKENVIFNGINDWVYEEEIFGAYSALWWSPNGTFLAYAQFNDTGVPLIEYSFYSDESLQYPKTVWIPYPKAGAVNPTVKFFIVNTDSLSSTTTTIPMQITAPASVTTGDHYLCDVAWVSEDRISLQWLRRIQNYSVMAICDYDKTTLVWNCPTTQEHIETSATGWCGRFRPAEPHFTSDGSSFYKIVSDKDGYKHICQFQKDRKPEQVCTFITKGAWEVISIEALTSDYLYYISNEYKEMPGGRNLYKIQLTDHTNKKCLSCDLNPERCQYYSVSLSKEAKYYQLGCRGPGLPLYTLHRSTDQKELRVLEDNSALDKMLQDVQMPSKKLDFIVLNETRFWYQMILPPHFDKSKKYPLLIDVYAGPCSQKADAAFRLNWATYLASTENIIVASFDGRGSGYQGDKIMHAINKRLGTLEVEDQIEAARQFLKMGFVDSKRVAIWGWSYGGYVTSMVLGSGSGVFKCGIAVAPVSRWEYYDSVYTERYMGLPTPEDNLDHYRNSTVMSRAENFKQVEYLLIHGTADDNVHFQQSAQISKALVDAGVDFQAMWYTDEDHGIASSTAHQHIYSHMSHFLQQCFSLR

Ki [1] [µM]	IC50 (purified porcine DPIV) [µM]	Compound	further results
12.6	–	CCCCCC[C@H](N)C(=O)N1CCC[C@H]1C(=O)N[C@H](C(=O)O)[C@@H](C)CC [AOA-Pro-Ile, 2-Amino octanoic acid-Pro-Ile] (H-[Aoc(2)]-Pro-Ile-OH)	–
–	72.8	CC[C@H](C)[C@H](NC(=O)[C@@H]1CCCN1C(=O)[C@@H]1CCN1)C(=O)O [Aze-Pro-Ile] (H-[Aze]-Pro-Ile-OH; N-terminus and C-terminus assumed)	–
14	–	NC(CC(=O)O)C(=O)N1CCCC1 (stereo not drawn) [H-Asp-pyrrolidine]	–
5.22	–	CC[C@@H](C)[C@H](NC(=O)[C@@H]1CCCN1C(=O)[C@@H](N)[C@@H](C)CC)C(=O)O [Ile-Pro-allo-Ile]	–
0.0476	0.579	CC(=O)C1CCCN1C(=O)C(N)C(C)C (stereo not drawn) [Val-Pro-methyl ketone]	–
3.08	–	CC(C)[C@H](NC(=O)[C@@H]1CCCN1C(=O)[C@@H](N)C(C)(C)C)C(=O)O [t-butyl-Gly-Pro-Val] (H-[Tle]-Pro-Val-OH; N-terminus and C-terminus assumed)	–
273	273	CC(C)(C)C(N)C(=O)C1CCCCC1 (stereo not drawn) [t-butyl-Gly-cyclohexyl ketone]	–
0.00105	0.0102	Val-Pro-acyloxy methyl ketone	–
0.0373	0.138	Val-Pro-benzothiazol methyl ketone	–
–	1000	Val-cyclohexyl ketone	–

The next lines start with the compound.

Compound	Ki [1] [µM]	IC50 (purified porcine DPIV) [µM]	further results
CC[C@H](N)C(=O)N1CCC[C@H]1C(=O)N[C@H](C(=O)O)[C@@H](C)CC [Abu-Pro-Ile] (H-[Abu]-Pro-Ile-OH; N-terminus and C-terminus assumed)	–	34.3	–
Br.CC(=O)OCC(=O)[C@@H]1CCCN1C(=O)[C@@H](NC(=O)[C@H](C)N)C(C)C [Ala-Val-Pro-acyloxy methyl ketone, H-Ala-Val-Pro-CH2O—C(O)CH3*HBr]	–	–	in vivo DPIV-inhibition at tmax, i.v. (plasma DPIV activity; [4]): 89%; in vivo DPIV-inhibition at tmax, p.o. (plasma DPIV activity; oral): 86%
Br.CC(C)[C@H](NC(=O)[C@H](C)N)C(=O)N1CCC[C@H]1C(=O)COC(=O)c1ccccc1 [Ala-Val-Pro-benzoyl-methyl ketone, H-Ala-Val-Pro-CH2O—C(O)Ph*HBr]	–	–	in vivo DPIV-inhibition at tmax, i.v. (plasma DPIV activity; [4]): 97%; in vivo DPIV-inhibition at tmax, p.o. (plasma DPIV activity; oral): 76%
N[C@@H](CCC(=O)NO)C(=O)N1CCSC1 [H-Glu(NHOH)-thiazolidine]	1.7	–	EC50 (PepT1 [2]): 3.18 mM; Imax, inward currents generated by the transport (PepT1 [3]): 42 ± 11 nA
N[C@@H](CCC(=O)O)C(=O)N1CCSC1 [H-Glu-thiazolidine]	–	–	Imax, inward currents generated by the transport (PepT1 [3]): 35 ± 13 nA
NC(Cc1c[nH]cn1)C(=O)N1CCCC1 (stereo not drawn) [H-His-pyrrolidine]	35	–	–
CCC(C)C(N)C(=O)N1CC1 (stereo not drawn) [H-Ile-azididine]	3.1	–	–
CC[C@H](C)[C@H](N)C(=O)N1CCC[C@H]1C(=O)N[C@H](C(=O)O)C(C)(C)C [Ile-Pro-t-butyl-Gly] (H-Ile-Pro-[Tle]-OH; N-terminus and C-terminus assumed)	18.9	82.3	–
CCC(C)C(N)C(=O)C1CCCCC1 (stereo not drawn) [Ile-cyclohexyl ketone]	56.8	293	–
CCC(C)C(N)C(=O)C1CCCC1 (stereo not drawn) [Ile-cyclopentyl ketone, 1-cyclopentyl-3-methyl-1-oxo-2-pentanaminium chloride]	–	–	inhibition at 100 mg/kg (plasma DPIV activity; iv, intra-vasal (intra-arterial) route, read-out: in vivo DPIV-inhibition at tmax, i.v.): 34%; inhibition at 100 mg/kg (plasma DPIV activity; oral, read-out: in vivo DPIV-inhibition at tmax, p.o.): 15%
CCC[C@H](N)C(=O)N1CCC[C@H]1C(=O)N[C@H](C(=O)O)[C@@H](C)CC [Nva-Pro-Ile] (H-[Nva]-Pro-Ile-OH; N-terminus and C-terminus assumed)	6.17	24.9	–
CC[C@H](C)[C@H](NC(=O)[C@@H]1CCCN1C(=O)[C@@H](N)CCCN)C(=O)O [Orn-Pro-Ile] (H-[Orn]-Pro-Ile-OH; N-terminus and C-terminus assumed)	–	216	–
CC[C@H](C)[C@H](NC(=O)[C@@H]1CCCN1C(=O)[C@@H](N)COCc1ccccc1)C(=O)O [Ser(Bzl)-Pro-Ile] (H-Ser(Bn)-Pro-Ile-OH; N-terminus and C-terminus assumed)	21.6	67.8	–
CC[C@H](C)[C@H](NC(=O)[C@@H]1CCCN1C(=O)[C@@H](N)Cc1ccc(OP(=O)(O)O)cc1)C(=O)O [Tyr(P)-Pro-Ile] (H-[pY]-Pro-Ile-OH; N-terminus and C-terminus assumed)	–	–	in vivo DPIV-inhibition at tmax, p.o. (plasma DPIV activity; oral): no inhibition
CC[C@@H](C)[C@H](NC(=O)[C@@H]1CCCN1C(=O)[C@@H](N)Cc1ccc(O)cc1)C(=O)O [Tyr-Pro-allo-Ile] (H-Tyr-Pro-[aIle]-OH; N-terminus and C-terminus assumed)	18.2	64.1	–
CC[C@@H](C)[C@H](NC(=O)[C@@H]1CCCN1C(=O)[C@@H](N)C(C)C)C(=O)O [Val-Pro-allo-Ile]	9.54	–	–
CC(C)C(N)C(=O)C1CCCC1 (stereo not drawn) [Val-cyclopentyl ketone]	13.1	49	–
CC[C@H](C)[C@H](N)C(=O)N1CCCC1C#N.O=C(O)C(F)(F)F (stereo partly drawn) [isoleucyl cyano pyrrolidine TFA]	–	–	blood pressure (F344 rats): dose-dependently reduced
CC(C)[C@@H](NC(=O)[C@@H]1CCCN1C(=O)[C@@H](N)C(C)(C)C)C(=O)O [t-butyl-Gly-Pro-D-Val] (H-[Tle]-Pro-[dV]-OH; N-terminus and C-terminus assumed)	–	112	–
H-Glu(PEG)-Thia	3.11	–	EC50 (PepT1 [2]): > 10 mM
Val-Pro-benzoyl methyl ketone	0.000536	0.0179	–
